# Assay results as given in PubChem BioAssay (NCI).
#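 Test compounds were applied to cells in 96-well plates for 48 hours at 5 doses. GI50 is the concentration that inhibits growth by half. Definition used: TGI = concentration required for complete inhibition of growth.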
# Tests used:
# Experiment in all cases: inhibition of tumour cell growth, NCI panel, 48 h
# [1] = system: COLO 205 colon
# [2] = system: BT-549 breast
# [3] = system: DU-145 prostate
# [4] = system: MDA-MB-231 breast
# [5] = system: HOP-92 NSCLC
# [6] = system: SF-295 CNS
# [7] = system: NCI-H460 lung
# [8] = system: MCF7 breast
# [9] = system: UACC-257 melanoma
# [10] = system: RXF 393 renal
# [11] = system: HS 578T breast
# [12] = system: MOLT-4 leukemia
# [13] = system: OVCAR-5 ovarian
# [14] = system: 786-0 renal
# [15] = system: MDA-MB-435
# [16] = system: HOP-62 NSCLC
# [17] = system: OVCAR-3 ovarian
# [18] = system: HT29 colon
# [19] = system: HL-60(TB) leukemia
# [20] = system: SF-539 CNS
# [21] = system: RPMI-8226 leukemia
# [22] = system: NCI/ADR-RES ovarian
# [23] = system: A549 NSCLC
# [24] = system: SK-MEL-2 melanoma
# [25] = system: SNB-75 CNS
# [26] = system: OVCAR-4 ovarian
# [27] = system: A498 renal
# [28] = system: ACHN renal
# [29] = system: HCT-15 colon
# [30] = system: U251 CNS
# [31] = system: SR leukemia
# [32] = system: NCI-H226 lung
# [33] = system: LOX IMVI melanoma
# [34] = system: KM12 colon
# [35] = system: SK-OV-3 ovarian
# [36] = system: M14 melanoma
# [37] = system: SF-268 CNS
# [38] = system: SNB-19 CNS
# [39] = system: T-47D breast
# [40] = system: SN12C renal
# [41] = system: CCRF-CEM leukemia
# [42] = system: NCI-H522 lung
# [43] = system: MALME-3M melanoma
# [44] = system: OVCAR-8 ovarian
# [45] = system: HCC-2998 colon
# [46] = system: UACC-62 melanoma
# [47] = system: NCI-H23 lung
# [48] = system: SK-MEL-5 melanoma
# [49] = system: PC-3 prostate
# [50] = system: TK-10 renal
# [51] = system: IGROV1 ovarian
# [52] = system: SK-MEL-28 melanoma
# [53] = system: HCT-116 colon
# [54] = system: SW-620 colon
# [55] = system: EKVX NSCLC
# [56] = system: UO-31 renal
# [57] = system: K-562 leukemia
# [58] = system: CAKI-1 renal
smiles,measurement,setting,value
CC(C)(CCN=C(N)Nc1ccccn1)c1ccc(C(F)(F)F)cc1,GI50,[1],13.3 µM
same,TGI,[1],28.1 µM
same,GI50,[2],15.1 µM
same,TGI,[2],31.2 µM
same,GI50,[3],16.2 µM
same,TGI,[3],31.8 µM
same,GI50,[4],14.9 µM
same,TGI,[4],29.8 µM
same,GI50,[5],13.3 µM
same,TGI,[5],27.6 µM
same,GI50,[6],14.9 µM
same,TGI,[6],29.3 µM
same,GI50,[7],15.3 µM
same,TGI,[7],31.2 µM
same,GI50,[8],12.2 µM
same,TGI,[8],27.4 µM
same,GI50,[9],18 µM
same,TGI,[9],32.8 µM
same,GI50,[10],14.6 µM
same,TGI,[10],29.6 µM
same,GI50,[11],18.1 µM
same,TGI,[11],39.3 µM
same,GI50,[12],14.5 µM
same,TGI,[12],37.4 µM
same,GI50,[13],15.8 µM
same,TGI,[13],30.7 µM
same,GI50,[14],13.3 µM
same,TGI,[14],28.2 µM
same,GI50,[15],15.1 µM
same,TGI,[15],29 µM
same,GI50,[16],15.7 µM
same,TGI,[16],30.2 µM
same,GI50,[17],13.7 µM
same,TGI,[17],29.5 µM
same,GI50,[18],10.4 µM
same,TGI,[18],24 µM
same,GI50,[19],17.1 µM
same,TGI,[19],36 µM
same,GI50,[20],15.3 µM
same,TGI,[20],29.4 µM
same,GI50,[21],6.58 µM
same,TGI,[21],26.7 µM
same,GI50,[22],17.5 µM
same,TGI,[22],32.9 µM
same,GI50,[23],16.5 µM
same,TGI,[23],31.6 µM
same,GI50,[24],16.9 µM
same,TGI,[24],32.9 µM
same,GI50,[25],12.9 µM
same,TGI,[25],33.8 µM
same,GI50,[26],11.8 µM
same,TGI,[26],28.1 µM
same,GI50,[27],14.9 µM
same,TGI,[27],28.8 µM
same,GI50,[28],13.5 µM
same,TGI,[28],26.5 µM
same,GI50,[29],14.4 µM
same,TGI,[29],29.2 µM
same,GI50,[30],16.4 µM
same,TGI,[30],30.4 µM
same,GI50,[31],15.1 µM
same,TGI,[31],32.9 µM
same,GI50,[32],13.6 µM
same,TGI,[32],31.7 µM
same,GI50,[33],14.2 µM
same,TGI,[33],27.6 µM
same,GI50,[34],15.8 µM
same,TGI,[34],30.9 µM
same,GI50,[35],15.8 µM
same,TGI,[35],30.8 µM
same,GI50,[36],14 µM
same,TGI,[36],29.6 µM
same,GI50,[37],16.5 µM
same,TGI,[37],35.6 µM
same,GI50,[38],16.9 µM
same,TGI,[38],33.1 µM
same,GI50,[39],11.1 µM
same,TGI,[39],28.5 µM
same,GI50,[40],15.1 µM
same,TGI,[40],29.8 µM
same,GI50,[41],17.7 µM
same,TGI,[41],58.4 µM
same,GI50,[42],14.5 µM
same,TGI,[42],30.8 µM
same,GI50,[43],14.3 µM
same,TGI,[43],29.6 µM
same,GI50,[44],17.7 µM
same,TGI,[44],33.2 µM
same,GI50,[45],15.1 µM
same,TGI,[45],29.6 µM
same,GI50,[46],15.7 µM
same,TGI,[46],29.8 µM
same,GI50,[47],12.7 µM
same,TGI,[47],27.6 µM
same,GI50,[48],12 µM
same,TGI,[48],25 µM
same,GI50,[49],14.2 µM
same,TGI,[49],28.9 µM
same,GI50,[50],15.5 µM
same,TGI,[50],29.5 µM
same,GI50,[51],12 µM
same,TGI,[51],26.2 µM
same,GI50,[52],15.8 µM
same,TGI,[52],30.6 µM
same,GI50,[53],10.6 µM
same,TGI,[53],24.3 µM
same,GI50,[54],16.1 µM
same,TGI,[54],34 µM
same,GI50,[55],11.2 µM
same,TGI,[55],30.5 µM
same,GI50,[56],10.7 µM
same,TGI,[56],22.7 µM
O=C1C(Nc2ccc(Br)cc2)=C(I)C(=O)c2ncccc21,GI50,[1],1.19 µM
same,TGI,[1],3.49 µM
same,GI50,[2],1.85 µM
same,TGI,[2],5.9 µM
same,GI50,[57],0.499 µM
same,TGI,[57],3.61 µM
same,GI50,[3],1.14 µM
same,TGI,[3],4.26 µM
same,GI50,[4],0.806 µM
same,TGI,[4],1.63 µM
same,GI50,[5],0.815 µM
same,TGI,[5],1.61 µM
same,GI50,[6],7.56 µM
same,TGI,[6],14.9 µM
same,GI50,[7],1.42 µM
same,TGI,[7],5.01 µM
same,GI50,[9],0.835 µM
same,TGI,[9],1.95 µM
same,GI50,[10],0.909 µM
same,TGI,[10],1.73 µM
same,GI50,[11],1.59 µM
same,TGI,[11],26 µM
same,GI50,[12],0.912 µM
same,TGI,[12],3.48 µM
same,GI50,[13],1.58 µM
same,TGI,[13],5.71 µM
same,GI50,[14],0.905 µM
same,TGI,[14],2.21 µM
same,GI50,[15],0.911 µM
same,TGI,[15],1.72 µM
same,GI50,[16],2.31 µM
same,TGI,[16],8.31 µM
same,GI50,[17],0.154 µM
same,TGI,[17],0.524 µM
same,GI50,[18],1.83 µM
same,TGI,[18],9.19 µM
same,GI50,[19],0.96 µM
same,TGI,[19],2.07 µM
same,GI50,[20],1.03 µM
same,TGI,[20],2.49 µM
same,GI50,[21],0.836 µM
same,TGI,[21],2.12 µM
same,GI50,[22],1.14 µM
same,TGI,[22],3.32 µM
same,GI50,[23],2.24 µM
same,TGI,[23],8.18 µM
same,GI50,[24],1.27 µM
same,TGI,[24],4.77 µM
same,GI50,[25],1.24 µM
same,TGI,[25],7 µM
same,GI50,[26],0.601 µM
same,TGI,[26],1.24 µM
same,GI50,[27],1.69 µM
same,TGI,[27],8.82 µM
same,GI50,[28],0.738 µM
same,TGI,[28],1.56 µM
same,GI50,[29],0.588 µM
same,TGI,[29],1.79 µM
same,GI50,[30],1.32 µM
same,TGI,[30],3.98 µM
same,GI50,[31],0.314 µM
same,TGI,[31],2.42 µM
same,GI50,[32],0.988 µM
same,TGI,[32],2.13 µM
same,GI50,[33],0.668 µM
same,TGI,[33],1.41 µM
same,GI50,[34],2.05 µM
same,TGI,[34],8.41 µM
same,GI50,[35],5.61 µM
same,TGI,[35],11.6 µM
same,GI50,[36],0.815 µM
same,TGI,[36],1.93 µM
same,GI50,[37],1.13 µM
same,TGI,[37],4.94 µM
same,GI50,[38],1.41 µM
same,TGI,[38],5.16 µM
same,GI50,[39],0.954 µM
same,TGI,[39],2.24 µM
same,GI50,[40],0.828 µM
same,TGI,[40],1.74 µM
same,GI50,[41],0.859 µM
same,TGI,[41],2.97 µM
same,GI50,[58],0.677 µM
same,TGI,[58],1.34 µM
same,GI50,[43],0.731 µM
same,TGI,[43],1.41 µM
same,GI50,[44],0.809 µM
same,TGI,[44],1.69 µM
same,GI50,[45],3.22 µM
same,TGI,[45],10.4 µM
same,GI50,[46],1.16 µM
same,TGI,[46],2.96 µM
same,GI50,[47],0.829 µM
same,TGI,[47],2.14 µM
same,GI50,[48],0.803 µM
same,TGI,[48],1.51 µM
same,GI50,[49],0.888 µM
same,TGI,[49],6.44 µM
same,GI50,[50],3.54 µM
same,TGI,[50],9.74 µM
same,GI50,[51],0.678 µM
same,TGI,[51],1.36 µM
same,GI50,[52],1.82 µM
same,TGI,[52],6.1 µM
same,GI50,[53],0.336 µM
same,TGI,[53],1.08 µM
same,GI50,[54],0.531 µM
same,TGI,[54],1.51 µM
same,GI50,[55],3.08 µM
same,TGI,[55],9.52 µM
same,GI50,[56],0.641 µM
same,TGI,[56],1.85 µM
